Experiments:
Experiment in all cases: Bliss excess, mean over the matrix (fraction); higher = more synergy
NCI-H2595 (Mesothelioma) = tested on: NCI-H2595 (Mesothelioma)
Procedure, shortened: (§1)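 Bliss excess equals the observed combination effect minus the expected value EA + EB − EA·EB, where EA and EB are the effects of each agent alone. Combination Emax is the second-highest inhibition within the matrix. Inhibition was scaled from CellTiter-Glo 2.0 luminescence, with 0 set by vehicle wells and 1 by blank wells, after 72 hours of two-drug dosing of cells plated in 1536-well plates.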

[1] = tested on: KM-H2 (Hodgkin's Lymphoma)
Procedure, shortened: as §1

SN12C (Kidney Carcinoma) = tested on: SN12C (Kidney Carcinoma)
Procedure, shortened: as §1

[2] = tested on: COR-L23 (Non-Small Cell Lung Carcinoma)
Procedure, shortened: as §1

[3] = tested on: NCI-H1694 (Small Cell Lung Carcinoma)
Procedure, shortened: as §1

[4] = tested on: CTV-1 (T-Lymphoblastic Leukemia)
Procedure, shortened: as §1

[5] = tested on: SW780 (Bladder Carcinoma)
Procedure, shortened: as §1

[6] = tested on: DOV13 (Ovarian Carcinoma)
Procedure, shortened: as §1

[7] = tested on: DB (B-Cell Non-Hodgkin's Lymphoma)
Procedure, shortened: as §1

[8] = tested on: TE-5 (Esophageal Squamous Cell Carcinoma)
Procedure, shortened: as §1

[9] = tested on: LU-99A (Non-Small Cell Lung Carcinoma)
Procedure, shortened: as §1

[10] = tested on: IHH-4 (Thyroid Gland Carcinoma)
Procedure, shortened: as §1

[11] = tested on: SNU-C5 (Colorectal Carcinoma)
Procedure, shortened: as §1

[12] = tested on: G-292-Clone-A141B1 (Osteosarcoma)
Procedure, shortened: as §1

NCI-H2369 (Mesothelioma) = tested on: NCI-H2369 (Mesothelioma)
Procedure, shortened: as §1

[13] = tested on: SW1990 (Pancreatic Carcinoma)
Procedure, shortened: as §1

[14] = tested on: HCC2157 (Breast Carcinoma)
Procedure, shortened: as §1

[15] = tested on: SW1088 (Low Grade Glioma)
Procedure, shortened: as §1

[16] = tested on: NALM-6 (B-Lymphoblastic Leukemia)
Procedure, shortened: as §1

[17] = tested on: MDA-MB-231 (Breast Carcinoma)
Procedure, shortened: as §1

Row | SMILES | Bliss excess (NCI-H2595 (Mesothelioma)) | Bliss excess [1] | Bliss excess (SN12C (Kidney Carcinoma)) | Bliss excess [2] | Bliss excess [3] | Bliss excess [4] | Bliss excess [5] | Bliss excess [6] | Bliss excess [7] | Bliss excess [8] | Bliss excess [9] | Bliss excess [10] | Bliss excess [11] | Bliss excess [12] | Bliss excess (NCI-H2369 (Mesothelioma)) | Bliss excess [13] | Bliss excess [14] | Bliss excess [15] | Bliss excess [16] | Bliss excess [17]
1 | COc1cccc(OCCCN)c1-c1cc(Nc2cnc(C#N)cn2)n[nH]1 [Prexasertib] + Cc1cc2ncnn2cc1Nc1ncc2c(n1)n(C1CCOCC1)c(=O)n2C [AZD7648] (first compound max 1 µM, 7x7, partner max 10 µM) | -0.0172 | -0.023 | -0.0816 | 0.0184 | -0.0259 | -0.0495 | 0.001 | 0.0069 | -0.0319 | 0.0129 | -0.0343 | -0.0109 | -0.0495 | -0.049 | -0.0252 | -0.0317 | -0.0315 | -0.0975 | -0.044 | 0.0128
2 | COc1nnc2ccc(N3CCC(c4ccc(OCCN5CCN(C)C(=O)[C@H]5C)cc4)CC3)nn12 [AZD5153] + CC1(C)CCC(CN2CCN(c3ccc(C(=O)NS(=O)(=O)c4ccc(NCC5CCOCC5)c([N+](=O)[O-])c4)c(Oc4cnc5[nH]ccc5c4)c3)CC2)=C(c2ccc(Cl)cc2)C1 [Venetoclax] (first compound max 1 µM, 7x7, partner max 1 µM) | 0.0185 | 0.0245 | -0.0343 | -0.0504 | 0.0045 | -0.0322 | -0.0071 | -0.0751 | -0.0114 | -0.0087 | -0.0853 | -0.0621 | -0.077 | -0.0571 | -0.0641 | -0.0448 | 0.0328 | -0.0439 | -0.0678 | -0.0755
3 | C[C@@H](c1ccc2nccn2c1)n1nnc2ncc(-c3cnn(C)c3)nc21 [Savolitinib] + CC1(C)CCC(CN2CCN(c3ccc(C(=O)NS(=O)(=O)c4ccc(NCC5CCOCC5)c([N+](=O)[O-])c4)c(Oc4cnc5[nH]ccc5c4)c3)CC2)=C(c2ccc(Cl)cc2)C1 [Venetoclax] (first compound max 1 µM, 7x7, partner max 1 µM) | 0.006 | 0 | -0.0152 | -0.0457 | -0.0286 | -0.0245 | -0.0671 | -0.0552 | 0.0216 | -0.0557 | -0.0746 | -0.0399 | -0.0596 | -0.0442 | -0.058 | -0.0219 | 0.0068 | -0.0115 | 0.01 | -0.0599
4 | CC1(C)CCC(CN2CCN(c3ccc(C(=O)NS(=O)(=O)c4ccc(NCC5CCOCC5)c([N+](=O)[O-])c4)c(Oc4cnc5[nH]ccc5c4)c3)CC2)=C(c2ccc(Cl)cc2)C1 [Venetoclax] + C[C@@H]1COCCN1C2=NC(=NC(=C2)C3(CC3)[S@](=N)(=O)C)C4=C5C=CNC5=NC=C4 [AZD6738] (first compound max 1 µM, 7x7, partner max 10 µM) | 0.0027 | 0.0384 | -0.047 | -0.0392 | 0.0443 | -0.0067 | -0.0299 | -0.001 | 0.009 | -0.0623 | -0.0278 | -0.0482 | -0.0289 | -0.0438 | -0.0247 | -0.0556 | 0.0204 | -0.0327 | 0.0565 | -0.0312
5 | C=CCn1c(=O)c2cnc(Nc3ccc(N4CCN(C)CC4)cc3)nc2n1-c1cccc(C(C)(C)O)n1 [AZD1775] + O=C(c1cc(Cc2n[nH]c(=O)c3ccccc23)ccc1F)N1CCN(C(=O)C2CC2)CC1 [Olaparib] (first compound max 1 µM, partner max 10 µM) | -0.0218 | 0.0084 | -0.0136 | -0.0182 | -0.036 | -0.0239 | -0.0262 | -0.0389 | -0.0788 | -0.0488 | -0.0603 | 0.0194 | -0.0485 | 0.0161 | -0.084 | -0.0697 | -0.0187 | 0.0045 | -0.0045 | -0.0267
6 | CN(C)CCCOc1ccc(-c2ccc3ncc4c(c3c2)n(C2CCOCC2)c(=O)n4C)cn1 [AZD0156] + C=CCn1c(=O)c2cnc(Nc3ccc(N4CCN(C)CC4)cc3)nc2n1-c1cccc(C(C)(C)O)n1 [AZD1775] (first compound max 1 µM, partner max 1 µM) | -0.062 | 0.0303 | -0.0717 | 0.0047 | -0.0303 | -0.0169 | -0.0311 | -0.0523 | -0.0119 | -0.0388 | -0.0422 | 0.0247 | -0.0296 | -0.0538 | -0.0266 | -0.0358 | -0.0233 | -0.0738 | 0.0093 | -0.0415
7 | C[C@@H](c1ccc2nccn2c1)n1nnc2ncc(-c3cnn(C)c3)nc21 [Savolitinib] + Cc1c2c(nn1C)CSCc1cc(n(C)n1)CSc1cc(c3ccccc3c1)OCCCc1c(C(=O)O)n(C)c3c-2c(Cl)ccc13 [AZD5991] (first compound max 1 µM, 7x7, partner max 1 µM) | -0.052 | -0.0286 | -0.0535 | -0.048 | 0.0027 | -0.0223 | -0.0487 | -0.0518 | 0.0299 | -0.027 | -0.0346 | -0.0182 | -0.05 | -0.0381 | -0.0527 | -0.0306 | -0.0289 | 0.021 | -0.0141 | -0.0186
8 | Cn1cnc2c(F)c(Nc3ccc(Br)cc3Cl)c(C(=O)NOCCO)cc21 [Selumetinib] + C[C@@H]1COCCN1C2=NC(=NC(=C2)C3(CC3)[S@](=N)(=O)C)C4=C5C=CNC5=NC=C4 [AZD6738] (first compound max 10 µM, 7x7, partner max 10 µM) | -0.0326 | -0.0148 | -0.0169 | -0.0148 | -0.0037 | -0.001 | 0.0087 | -0.11 | -0.0353 | -0.0388 | 0.0565 | 0.0224 | 0.0751 | -0.0303 | -0.0338 | -0.0653 | 0.0059 | -0.0737 | -0.0063 | -0.025
9 | CCN(CCO)CCCOc1ccc2c(Nc3cc(CC(=O)Nc4cccc(F)c4)[nH]n3)ncnc2c1 [AZD2811] + C=CCn1c(=O)c2cnc(Nc3ccc(N4CCN(C)CC4)cc3)nc2n1-c1cccc(C(C)(C)O)n1 [AZD1775] (first compound max 1 µM, partner max 1 µM) | -0.0509 | 0.0339 | -0.0698 | -0.0043 | 0.0223 | 0.0014 | 0.0194 | -0.0063 | 0.0251 | -0.076 | -0.0354 | 0.0451 | 0.0188 | -0.0368 | -0.0434 | -0.0403 | -0.0071 | 0.0034 | -0.0515 | 0.009
10 | NC1(C(=O)N[C@@H](CCO)c2ccc(Cl)cc2)CCN(c2ncnc3[nH]ccc23)CC1 [Capivasertib] + Cn1cnc2c(F)c(Nc3ccc(Br)cc3Cl)c(C(=O)NOCCO)cc21 [Selumetinib] (first compound max 10 µM, 7x7, partner max 10 µM) | -0.0454 | -0.0084 | 0.0041 | 0.0071 | -0.0078 | 0.106 | 0.0066 | -0.0314 | -0.0093 | 0.0457 | -0.0222 | -0.0165 | 0.0154 | -0.0056 | -0.0292 | 0.0535 | 0.017 | 0.0342 | 0.0323 | -0.007
11 | COc1cccc(OCCCN)c1-c1cc(Nc2cnc(C#N)cn2)n[nH]1 [Prexasertib] + CCc1c2c(nc3ccc(O)cc13)-c1cc3c(c(=O)n1C2)COC(=O)[C@]3(O)CC [SN-38] (first compound max 1 µM, 7x7, partner max 0.3 µM) | 0.0211 | -0.0411 | -0.0237 | 0.0388 | 0.0037 | -0.0461 | -0.0348 | -0.0444 | -0.0299 | -0.0476 | -0.0593 | -0.0653 | -0.0375 | 0.0081 | 0.0148 | -0.0551 | 0.0649 | 0.0128 | -0.0555 | 0.0723
12 | CC1(C)CCC(CN2CCN(c3ccc(C(=O)NS(=O)(=O)c4ccc(NCC5CCOCC5)c([N+](=O)[O-])c4)c(Oc4cnc5[nH]ccc5c4)c3)CC2)=C(c2ccc(Cl)cc2)C1 [Venetoclax] + Cc1cc2ncnn2cc1Nc1ncc2c(n1)n(C1CCOCC1)c(=O)n2C [AZD7648] (first compound max 1 µM, 7x7, partner max 10 µM) | -0.0185 | -0.0322 | -0.0471 | -0.0351 | -0.0247 | -0.0249 | -0.0035 | 0.0659 | 0.0225 | -0.0382 | -0.0437 | -0.027 | -0.0233 | -0.037 | -0.0273 | -0.0426 | 0.0602 | -0.105 | -0.0184 | 0.0192

— the supplement of paper PMC11061612
